Results taken from ChEMBL document CHEMBL1201862, “PubChem BioAssay data set” (2004).
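96-well plates; 48 h exposure; 5 concentrations. Endpoints by linear interpolation between flanking doses. Not reached: highest tested concentration assigned. Here, GI50 denotes the concentration required for 50% inhibition of growth.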 Activity calls are given as the source filed them. Rule as the data show it: active = GI50 up to about 1.1 µM and inactive = higher.

Experiments:
Experiment in all cases: DTP human tumour cell line panel, 48 h
[1] = tested on: DU-145
[2] = tested on: SW-620
[3] = tested on: HCC 2998
[4] = tested on: HCT-116
[5] = tested on: UACC-257
[6] = tested on: HL-60
[7] = tested on: MCF7
[8] = tested on: IGROV-1
[9] = tested on: HOP-62
[10] = tested on: CCRF-CEM
[11] = tested on: K562
[12] = tested on: SF-539
[13] = tested on: MDA-N
[14] = tested on: A549
[15] = tested on: UO-31
[16] = tested on: NCI-H23
[17] = tested on: A498
[18] = tested on: ACHN
[19] = tested on: SK-MEL-5
[20] = tested on: SK-MEL-28
[21] = tested on: MDA-MB-231
[22] = tested on: T47D
[23] = tested on: MDA-MB-435
[24] = tested on: HOP-92
[25] = tested on: HCT-15
[26] = tested on: OVCAR-5
[27] = tested on: PC-3
[28] = tested on: COLO 205
[29] = tested on: NCI-H522
[30] = tested on: KM12
[31] = tested on: UACC-62
[32] = tested on: LOX IMVI
[33] = tested on: M14
[34] = tested on: SK-OV-3
[35] = tested on: SNB-75
[36] = tested on: RPMI-8226
[37] = tested on: Hs-578T
[38] = tested on: OVCAR-3
[39] = tested on: EKVX
[40] = tested on: TK-10
[41] = tested on: SF-268
[42] = tested on: MOLT-4
[43] = tested on: SF-295
[44] = tested on: NCI-H226
[45] = tested on: 786-0
[46] = tested on: SK-MEL-2
[47] = tested on: U-251
[48] = tested on: NCI/ADR-RES
[49] = tested on: OVCAR-4
[50] = tested on: RXF 393
[51] = tested on: SR
[52] = tested on: SN12C
[53] = tested on: HT-29
[54] = tested on: SNB-19
[55] = tested on: CAKI-1
[56] = tested on: NCI-H460
[57] = tested on: Malme-3M

COCCOCc1nc(C#N)c(N)o1
GI50 [1]: > 100 µM (inactive)
GI50 [2]: > 100 µM (inactive)
GI50 [3]: > 100 µM (inactive)
GI50 [4]: > 100 µM (inactive)
GI50 [5]: > 100 µM (inactive)
GI50 [6]: > 100 µM (inactive)
GI50 [7]: > 100 µM (inactive)
GI50 [8]: > 100 µM (inactive)
GI50 [9]: > 100 µM (inactive)
GI50 [10]: > 100 µM (inactive)
GI50 [11]: > 100 µM (inactive)
GI50 [12]: > 100 µM (inactive)
GI50 [13]: > 100 µM (inactive)
GI50 [14]: > 100 µM (inactive)
GI50 [15]: > 100 µM (inactive)
GI50 [16]: > 100 µM (inactive)
GI50 [17]: > 100 µM (inactive)
GI50 [18]: > 100 µM (inactive)
GI50 [19]: > 100 µM (inactive)
GI50 [20]: > 100 µM (inactive)
GI50 [21]: > 100 µM (inactive)
GI50 [22]: > 100 µM (inactive)
GI50 [23]: > 100 µM (inactive)
GI50 [24]: > 100 µM (inactive)
GI50 [25]: > 100 µM
GI50 [26]: > 100 µM (inactive)
GI50 [27]: > 100 µM (inactive)
GI50 [28]: > 100 µM (inactive)
GI50 [29]: > 10 µM (inactive)
GI50 [30]: > 100 µM (inactive)
GI50 [31]: > 100 µM (inactive)
GI50 [32]: > 100 µM (inactive)
GI50 [33]: > 100 µM (inactive)
GI50 [34]: > 100 µM (inactive)
GI50 [35]: > 100 µM (inactive)
GI50 [36]: > 100 µM (inactive)
GI50 [37]: > 100 µM (inactive)
GI50 [38]: > 100 µM (inactive)
GI50 [39]: > 100 µM (inactive)
GI50 [40]: > 100 µM (inactive)
GI50 [41]: > 100 µM (inactive)
GI50 [42]: > 100 µM (inactive)
GI50 [43]: > 100 µM (inactive)
GI50 [44]: > 100 µM (inactive)
GI50 [45]: > 100 µM (inactive)
GI50 [46]: > 100 µM (inactive)
GI50 [47]: > 100 µM (inactive)
GI50 [48]: > 100 µM (inactive)
GI50 [49]: > 100 µM (inactive)
GI50 [50]: > 100 µM (inactive)
GI50 [51]: > 100 µM (inactive)
GI50 [52]: > 100 µM (inactive)
GI50 [53]: > 100 µM (inactive)
GI50 [54]: > 100 µM (inactive)
GI50 [55]: > 100 µM (inactive)
GI50 [56]: > 100 µM (inactive)
GI50 [57]: > 100 µM (inactive)
